The results in this text go back to ChEMBL document CHEMBL1147091, “Prevalence of plasmid-mediated quinolone resistance determinants QnrA, QnrB, and QnrS among clinical isolates of Enterobacter cloacae in a Taiwanese hospital” (2007).

For experiment [1], the system named is Escherichia coli. Briefly: Decrease in susceptibility of qnrS-positive transconjugant streptomycin-resistant Escherichia coli C600. The class given is functional.
The subject of experiment [2] is Enterobacter cloacae. In words: Susceptibility of qnr positive Enterobacter cloacae assessed as percentage nonsusceptible isolates. Type of experiment: functional.
In experiment [3] the test system is Enterobacter cloacae. In words: Susceptibility of qnr positive Enterobacter cloacae producing IMP8 and/or SHV12 assessed as percentage nonsusceptible isolates.
The subject of experiment [4] is Enterobacter cloacae. In words: Susceptibility of metallo beta lactamase and extended spectrum beta lactamase deficient qnr positive Enterobacter cloacae assessed as percentage nonsusceptible isolates. The class given is functional.
The subject of experiment [5] is Enterobacter cloacae. Briefly: Susceptibility of qnr positive Enterobacter cloacae. The class given is functional.
The test system of experiment [6] is Escherichia coli. Briefly: Decrease in susceptibility of qnrB-positive transconjugant streptomycin-resistant Escherichia coli C600. The class given is functional.

SMILES strings stand for the structures. In brackets after ≈: the same amount, converted by molar mass. Activity calls are given as the source filed them. The rule behind the calls is not given here.

On to `CC(=O)OCC1=C(C(=O)O)N2C(=O)[C@@H](NC(=O)Cc3cccs3)[C@H]2SC1`, for which the outcome in the experiment with Escherichia coli [1] was inactive. As for `CC1(C)S[C@@H]2[C@H](NC(=O)[C@H](N)c3ccccc3)C(=O)N2[C@H]1C(=O)O`, the outcome in the experiment on Escherichia coli [1] was inactive. As to `NCC[C@H](O)C(=O)N[C@@H]1C[C@H](N)[C@@H](O[C@H]2O[C@H](CN)[C@@H](O)[C@H](O)[C@H]2O)[C@H](O)[C@H]1O[C@H]1O[C@H](CO)[C@@H](O)[C@H](N)[C@H]1O` [AMIKACIN], in the experiment with Enterobacter cloacae [2], the Activity is reported as 3.5%. In the case of `CO/N=C(\C(=O)N[C@@H]1C(=O)N2C(C(=O)O)=C(COC(C)=O)CS[C@H]12)c1csc(N)n1` [CEFOTAXIME], in the experiment on Enterobacter cloacae [2], the Activity was determined as 97.8%.

Take `CC(C)(O/N=C(\C(=O)N[C@@H]1C(=O)N2C(C(=O)[O-])=C(C[n+]3ccccc3)CS[C@H]12)c1csc(N)n1)C(=O)O` [CEFTAZIDIME]: the Activity in the experiment with Enterobacter cloacae [3] was determined as 100%; with Enterobacter cloacae [2], 86%; with Enterobacter cloacae [4], 29.4%. For `O=C(O)c1cn(C2CC2)c2cc(N3CCNCC3)c(F)cc2c1=O` [CIPROFLOXACIN], the Activity in the experiment with Escherichia coli [1] stood at 0.25 µg/mL.

Regarding `C[C@@H](O)[C@H]1C(=O)N2C(C(=O)O)=C(SCCNC=N)C[C@H]12` [IMIPENEM ANHYDROUS], the Activity with Enterobacter cloacae [2] amounted to 9.3%.

Take `CCn1cc(C(=O)O)c(=O)c2ccc(C)nc21` [NALIDIXIC ACID]: the MIC90 against Enterobacter cloacae [5] was > 256 µg/mL. The MIC in the experiment on Escherichia coli [6] is 16 µg/mL (≈ 68.9 µM); in the experiment on Escherichia coli [1] (Escherichia coli, C600) it was 16 µg/mL (≈ 68.9 µM). Further, the Activity in the experiment on Enterobacter cloacae [2] was determined as 100%.
